In patent US20260069539A1, “LIPIDOID COMPOUNDS AND RELATED COMPOSITIONS AND USES” (Poseida Therapeutics, Inc., priority 2023, published 2026):

How the values were obtained:
liver cells [1] = assay: In vivo LNP delivery of DNA encoding firefly luciferase, bioluminescent imaging (BLI) at 48 hr; parameters: species or system BALB/C mice; details: for Mean Luciferase Flux (p/s): adult BALB/C mice, 0.5 mg/kg DNA encoding firefly luciferase in LNP; for Mean Luciferase Flux (p/s) / Total Flux: BLI at 48 hr; for Total Flux: Example 103, 0.5 mg/kg DNA intravenous
Experimental: Adult BALB/C mice (n=3) were administered 0.5 mg/kg of DNA encoding firefly luciferase (Nature Technology Corp) formulated in a LNP composition listed in Table 4. One group of mice was treated with vehicle (PBS, Thermo Fisher Scientific, USA) as a negative control.
(§1) The location and extent of luciferase expression in treated and control mice were determined at 48 hr for DNA delivery by bioluminescent imaging (BLI) of anesthetized mice using an IVIS Lumina in vivo imaging system (Perkin Elmer) according to the manufacturer's instructions. Briefly, mice were anesthetized using isoflurane in oxygen, and placed supine on a heated stage. Mice were then administered D-luciferin (Perkin-Elmer #122799) IP, and BLI was performed.
as §1, with “DNA” for “DNA delivery”, “performed. […]” for “performed.”
Body weight loss (BWL) measurements were taken at 24 hrs post administration and luciferase expression was measured by whole body luminescence imaging (BLI) at 48 hours post-administration. […]
Luciferase expression was measured by whole body luminescence imaging (BLI) at 48 hours post-administration.

liver cells [2] = assay: In vivo LNP delivery of fLuciferase mRNA, bioluminescent imaging (BLI) at 4 hr; parameters: species or system BALB/C mice; details: for Mean Luciferase Flux: 0.5 mg/kg fLuc mRNA i.v., 4 hr; for Total Flux: 0.5 mg/kg fLuciferase mRNA intravenous
Experimental: Adult female BALB/C mice (n=3/group) were intravenously administered 0.5 mg/kg of 5′-CleanCap—fLuciferase mRNA (TriLink Biotech) formulated with the LNP compositions shown in Table 6. One group of mice was treated with vehicle (PBS, Thermo Fisher Scientific, USA) as a negative control.
as §1, with “determined at 4 hr for mRNA and 48 hr” for “determined at 48 hr”, “for DNA by bioluminescent” for “for DNA delivery by bioluminescent”
as §1, with “4” for “48”, “hr” for “hr for DNA delivery”
as §1, with “4” for “48”, “hr” for “hr for DNA delivery”
The location and extent of luciferase expression in treated and control mice were determined at 4 hr by bioluminescent imaging (BLI) of anesthetized mice using an IVIS Lumina in vivo imaging system (Perkin Elmer) according to the manufacturer's instructions.
Briefly, mice were anesthetized using isoflurane in oxygen, and placed supine on a heated stage. Mice were then administered D-luciferin (Perkin-Elmer #122799) IP, and BLI was performed.
as §1, with “4” for “48”, “hr” for “hr for DNA delivery”

[3] = Body weight change / body weight loss 24 hours post-administration of LNP; type: in vivo, BALB/C mice; details: fLuc mRNA 0.5 mg/kg i.v.
Experimental: In addition, the body weight of mice treated with LNP compositions of the present disclosure prepared as described in Example 77 was assessed prior to intravenous administration and 24 hours post-administration and the body weights at baseline and post-treatment were compared.
In addition, the body weight of mice treated with LNP compositions of the present disclosure was assessed prior to intravenous administration and 24 hours post-administration and the body weights at baseline and post-treatment were compared.
Body weight loss (BWL) measurements were taken at 24 hrs post administration and luciferase expression was measured by whole body luminescence imaging (BLI) at 48 hours post-administration.
Blood was drawn from control and treated mice 4 hrs post-administration for cytokine analysis, body weight loss (BWL) measurements were taken at 24 hrs post administration and luciferase expression was measured by whole body luminescence imaging (BLI) at 48 hours post-administration.

[4] = LNP with 50 % moles of COMPOUND NO. 38 or 39 (DOPC 10/Chol 38.5/PEG-DMG 1.5, Lipid:RNA 80)
[5] = LNP with 40.75 % moles of the compound
[6] = LNP with 50 % moles of the compound
[7] = Table 15 experiment, LNP with 40.75 % moles of the compound (Lipid:RNA 80)
[8] = Table 15 experiment, LNP with 50 % moles of the compound (Lipid:RNA 80)
[9] = Example 104, experiment of Table 63, BLI at 4 hr
[10] = Example 104, experiment of Table 64, BLI at 4 hr
[11] = Example 104, experiment of Table 65, BLI at 4 hr

SMILES: CCCCCC1CCC(C(=O)OCCOC(=O)CCN(CCCN(C)CCCN(CCC(=O)OCCOC(=O)[C@H]2CC[C@H](CCCCC)CC2)CCC(=O)OCCOC(=O)[C@H]2CC[C@H](CCCCC)CC2)CCC(=O)OCCOC(=O)C2CCC(CCCCC)CC2)CC1 (stereo partly shown) [COMPOUND NO. 3]
- Mean Luciferase Flux (p/s) (liver cells [1]): 2.12E+08 p/s

SMILES: CCCCCC1CCC(C(=O)OCCOC(=O)CCN(CCCN(C)CCN(CCC(=O)OCCOC(=O)[C@H]2CC[C@H](CCCCC)CC2)CCC(=O)OCCOC(=O)[C@H]2CC[C@H](CCCCC)CC2)CCC(=O)OCCOC(=O)C2CCC(CCCCC)CC2)CC1 (stereo partly shown) [COMPOUND NO. 4]
- Mean Luciferase Flux (p/s) (liver cells [1]): 1.36E+09 p/s

SMILES: CCCCC[C@H]1CC[C@H](C(=O)OCC(COC(=O)CCCCCN(CCCCO)CCCCCC(=O)COC(COC(=O)[C@H]2CC[C@H](CCCCC)CC2)COC(=O)[C@H]2CC[C@H](CCCCC)CC2)COC(=O)[C@H]2CC[C@H](CCCCC)CC2)CC1 [COMPOUND NO. 38]
- Mean Luciferase Flux (liver cells [2]; [4]): 1.17E+11 p/s
- Total Flux (liver cells [1]; LNP with 10% DSPC): 8.29E+07 p/s

SMILES: CCCCC[C@H]1CC[C@H](C(=O)OCC(COC(=O)CCCCCN(CCCCCC(=O)COC(COC(=O)[C@H]2CC[C@H](CCCCC)CC2)COC(=O)[C@H]2CC[C@H](CCCCC)CC2)CCCCNC(C)=O)COC(=O)[C@H]2CC[C@H](CCCCC)CC2)CC1 [COMPOUND NO. 39]
- Mean Luciferase Flux (liver cells [2]; [4]): 9.49E+10 p/s
- Total Flux (liver cells [1]; LNP with 10% DOPC): 2.03E+06 p/s

SMILES: CCCCCC(=O)OCC1CCC(COC(=O)C(CCCN(C)CCCC(C(=O)OCC2CCC(COC(=O)CCCCC)CC2)C(=O)OCC2CCC(COC(=O)CCCCC)CC2)C(=O)OCC2CCC(COC(=O)CCCCC)CC2)CC1 (stereo not shown) [COMPOUND NO. 41]
- % body weight change [3, 5]: −1.8%
- % body weight change [3, 6]: −2.6%
- Mean Luciferase Flux (liver cells [2]; [7]): 3.79E+09 p/s
- Mean Luciferase Flux (liver cells [2]; [8]): 5.26E+09 p/s

SMILES: CC(C)CCCC1CCC(COC(=O)C(CCCN(CCO)CCCC(C(=O)OCC2CCC(CCCC(C)C)CC2)C(=O)OCC2CCC(CCCC(C)C)CC2)C(=O)OCC2CCC(CCCC(C)C)CC2)CC1 (stereo not shown) [COMPOUND NO. 42]
- % body weight change [3, 5]: −2.3%
- % body weight change [3, 6]: −4.0%
- Mean Luciferase Flux (liver cells [2]; [7]): 1.23E+09 p/s
- Mean Luciferase Flux (liver cells [2]; [8]): 8.27E+09 p/s

SMILES: CCCCC[C@H]1CC[C@H](C(=O)OCC(COC(=O)CCCCCN(CCCCCC(=O)OCC(COC(=O)[C@H]2CC[C@H](CCCCC)CC2)COC(=O)[C@H]2CC[C@H](CCCCC)CC2)[C@H]2CC[C@H](O)CC2)COC(=O)[C@H]2CC[C@H](CCCCC)CC2)CC1 [COMPOUND NO. 53]
- Total Flux (liver cells [1]; LNP with 10% DOPC): 4.23E+07 p/s

SMILES: CCCCC[C@H]1CC[C@H](C(=O)OCC(COC(=O)CCCCCN(CCCCCC(=O)OCC(COC(=O)[C@H]2CC[C@H](CCCCC)CC2)COC(=O)[C@H]2CC[C@H](CCCCC)CC2)C[C@@H](C)O)COC(=O)[C@H]2CC[C@H](CCCCC)CC2)CC1 [COMPOUND NO. 57]
- Total Flux (liver cells [2]; [9]): 9.69E+10 p/s

SMILES: CCCCC[C@H]1CC[C@H](C(=O)OCC(COC(=O)CCCCCN(CCC)CCCCCC(=O)OCC(COC(=O)[C@H]2CC[C@H](CCCCC)CC2)COC(=O)[C@H]2CC[C@H](CCCCC)CC2)COC(=O)[C@H]2CC[C@H](CCCCC)CC2)CC1 [COMPOUND NO. 58]
- Total Flux (liver cells [2]; [10]): 4.38E+09 p/s

SMILES: CCCCC[C@H]1CC[C@H](C(=O)OCC(COC(=O)CCCCCN(CCCCCC(=O)OCC(COC(=O)[C@H]2CC[C@H](CCCCC)CC2)COC(=O)[C@H]2CC[C@H](CCCCC)CC2)C[C@@H](O)CO)COC(=O)[C@H]2CC[C@H](CCCCC)CC2)CC1 [COMPOUND NO. 60]
- Total Flux (liver cells [2]; [10]): 6.51E+10 p/s

SMILES: CCCCC[C@H]1CC[C@H](C(=O)OCC(COC(=O)CCCCCN(CCCCCC(=O)OCC(COC(=O)[C@H]2CC[C@H](CCCCC)CC2)COC(=O)[C@H]2CC[C@H](CCCCC)CC2)C[C@H](O)CO)COC(=O)[C@H]2CC[C@H](CCCCC)CC2)CC1 [COMPOUND NO. 61]
- Total Flux (liver cells [2]; [10]): 1.04E+11 p/s

SMILES: CCCCC[C@H]1CC[C@H](C(=O)OCC(COC(=O)CCCCCN(CCCCCC(=O)OCC(COC(=O)[C@H]2CC[C@H](CCCCC)CC2)COC(=O)[C@H]2CC[C@H](CCCCC)CC2)C(CO)CO)COC(=O)[C@H]2CC[C@H](CCCCC)CC2)CC1 [COMPOUND NO. 62]
- Total Flux (liver cells [2]; [11]): 2.20E+11 p/s

SMILES: CCCCC[C@H]1CC[C@H](C(=O)OCC(COC(=O)CCCCCN(CCCCCC(=O)OCC(COC(=O)[C@H]2CC[C@H](CCCCC)CC2)COC(=O)[C@H]2CC[C@H](CCCCC)CC2)Cc2ccccc2)COC(=O)[C@H]2CC[C@H](CCCCC)CC2)CC1 [COMPOUND NO. 63]
- Total Flux (liver cells [2]; [10]): 3.48E+05 p/s

SMILES: O=C(CCCCCN(CCO)CCCCCC(=O)OCC(COC(=O)CCCCC1CCCCC1)COC(=O)CCCCC1CCCCC1)OCC(COC(=O)CCCCC1CCCCC1)COC(=O)CCCCC1CCCCC1 [COMPOUND NO. 65]
- Total Flux (liver cells [2]; [9]): 1.30E+11 p/s

SMILES: O=C(CCCCCN(CCCO)CCCCCC(=O)OCC(COC(=O)CCCCC1CCCCC1)COC(=O)CCCCC1CCCCC1)OCC(COC(=O)CCCCC1CCCCC1)COC(=O)CCCCC1CCCCC1 [COMPOUND NO. 66]
- Total Flux (liver cells [2]; [9]): 3.25E+11 p/s

SMILES: O=C(CCCCCN(CCCCO)CCCCCC(=O)OCC(COC(=O)CCCCC1CCCCC1)COC(=O)CCCCC1CCCCC1)OCC(COC(=O)CCCCC1CCCCC1)COC(=O)CCCCC1CCCCC1 [COMPOUND NO. 67]
- Total Flux (liver cells [2]; [11]): 3.79E+11 p/s

SMILES: CCCCC[C@H]1CC[C@H](C(=O)OCC(COC(=O)CCCCN(CCO)CCCCC(=O)OCC(COC(=O)[C@H]2CC[C@H](CCCCC)CC2)COC(=O)[C@H]2CC[C@H](CCCCC)CC2)COC(=O)[C@H]2CC[C@H](CCCCC)CC2)CC1 [COMPOUND NO. 71]
- Total Flux (liver cells [2]; [11]): 1.78E+11 p/s

SMILES: CCCCC[C@H]1CC[C@H](C(=O)OCC(COC(=O)CCCCN(CCCO)CCCCC(=O)OCC(COC(=O)[C@H]2CC[C@H](CCCCC)CC2)COC(=O)[C@H]2CC[C@H](CCCCC)CC2)COC(=O)[C@H]2CC[C@H](CCCCC)CC2)CC1 [COMPOUND NO. 72]
- Total Flux (liver cells [2]; [11]): 2.40E+11 p/s

SMILES: CCCCC[C@H]1CC[C@H](C(=O)OCC(COC(=O)CCCCN(CCCCO)CCCCC(=O)OCC(COC(=O)[C@H]2CC[C@H](CCCCC)CC2)COC(=O)[C@H]2CC[C@H](CCCCC)CC2)COC(=O)[C@H]2CC[C@H](CCCCC)CC2)CC1 [COMPOUND NO. 73]
- Total Flux (liver cells [2]; [11]): 1.61E+11 p/s

SMILES: CCCCCCCCCCCC(=O)OCC(COC(=O)CCCCCCCCCCC)COC(=O)CCCCCN(CCO)CCCCCC(=O)OCC(COC(=O)CCCCCCCCCCC)COC(=O)CCCCCCCCCCC [compound 100, reference compound]
- RNA delivery potency (liver cells [2]; 0.5 mg/kg fLuciferase mRNA in LNP, BLI at 4 hr): RNA delivery potency increases with increasing number of cyclohexyl-substituted tails
- Total Flux (liver cells [2]; [10]): 3.24E+10 p/s
- DNA delivery potency (liver cells [1]; 0.5 mg/kg DNA, BLI 48 hr, compared to LNPs comprising COMPOUND NOS. 36, 37, or 38): greatly reduced
- Total Flux (liver cells [1]; LNP comprising compound 100, composition not stated): 1.97E+07 p/s
